Experimental data taken from patent US20230255961A1, “Rotomeric Isomers of 4-Alkyl-5-Heteroaryl-3H-1,2-Dithiole-3-Thiones” (ST IP Holding AG, priority 2020, published 2023).
Read-outs that look alike come from different tables or passages of the source.

Assays:
HGEPp cells [1] = experiment: ROS production in H2O2-induced oxidatively stressed HGEPp cells; format: cell-based, human; details: HGEPp cells pretreated 24 hrs at 100 μg/mL prior to 0.3 mM H2O2 for 4 h; positive control 139%
Procedure: That same assay was carried out on the rotomer compositions prepared in Examples 1-11 above to determine their effect on protecting primary human gingival epithelial cells (HGEPp) cells from oxidative damage induced by hydrogen peroxide (H2O2).

ALOX12 = experiment: Human oxidative stress RT2 Profiler PCR array in HGEPp cells: ALOX12; format: cell-based; details: HGEPp cells pretreated 24 h at 100 μg/ml; ΔΔCt
Procedure: (§1) RT-PCR was performed on an iCycler.

SOD1 = experiment: Human oxidative stress RT2 Profiler PCR array in HGEPp cells: SOD1; format: cell-based; details: HGEPp cells pretreated 24 h at 100 μg/ml; ΔΔCt
Procedure: as §1

GPX1 = experiment: Human oxidative stress RT2 Profiler PCR array in HGEPp cells: GPX1; format: cell-based; details: HGEPp cells pretreated 24 h at 100 μg/ml; ΔΔCt
Procedure: as §1

NQO1 = experiment: Human oxidative stress RT2 Profiler PCR array in HGEPp cells: NQO1; format: cell-based; details: HGEPp cells pretreated 24 h at 100 μg/ml; ΔΔCt
Procedure: as §1

GCLC = experiment: Human oxidative stress RT2 Profiler PCR array in HGEPp cells: GCLC; format: cell-based; details: HGEPp cells pretreated 24 h at 100 μg/ml; ΔΔCt
Procedure: as §1

GSTP1 = experiment: Human oxidative stress RT2 Profiler PCR array in HGEPp cells: GSTP1; format: cell-based; details: HGEPp cells pretreated 24 h at 100 μg/ml; ΔΔCt
Procedure: as §1

GCLM = experiment: Human oxidative stress RT2 Profiler PCR array in HGEPp cells: GCLM; format: cell-based; details: HGEPp cells pretreated 24 h at 100 μg/ml; ΔΔCt
Procedure: as §1

GTF2i = experiment: Human oxidative stress RT2 Profiler PCR array in HGEPp cells: GTF2i; format: cell-based; details: HGEPp cells pretreated 24 h at 100 μg/ml; ΔΔCt
Procedure: as §1

PTGS1 = experiment: Human oxidative stress RT2 Profiler PCR array in HGEPp cells: PTGS1; format: cell-based; details: HGEPp cells pretreated 24 h at 100 μg/ml; ΔΔCt
Procedure: as §1

UCP2 = experiment: Human oxidative stress RT2 Profiler PCR array in HGEPp cells: UCP2; format: cell-based; details: HGEPp cells pretreated 24 h at 100 μg/ml; ΔΔCt
Procedure: as §1

MPO = experiment: Human oxidative stress RT2 Profiler PCR array in HGEPp cells: MPO; details: HGEPp cells pretreated 24 h at 100 μg/ml; ΔΔCt
Procedure: (§3) Pooled primary HGEPp cells were propagated in CnT-Prime epithelial culture medium provided by CellnTec on 100 mm petri dishes coated with 30 mg/ml Type I rat tail collagen (BD Biosciences) diluted in Duibecco's phosphate-buffered saline (DPBS). HGEPp cells were grown in 12×60 mm Nunc™ Cell Culture dishes at a 2.5×10^4 cells/cm2 density concentration.
(§4) All dosing solutions contained 0.3% of DMSO which is well below the maximum tolerated DMSO percent of 0.8% for HGEPp cells.
(§5) The RN-easy UCP Micro Kit was used to purify mRNA from the HGEPp cells.
(§6) The assay was reliably used to analyze expression levels of 84 genes related to oxidative stress in HGEPp cells pre-treated with ST-617-APT, ST-617-DPT and the rotomeric complexes at 100 μg/ml for 24 h. The cDNA from above was mixed with the RT2 SYBR Green fluor Mastermix and aliquoted into the wells of the RT2 Profiler PCR Array. RT-PCR was performed on an iCycler. Gene expression was compared using et values and the results were calculated using ΔΔ Ct method with normalization to the average expression levels of the five common genes (ACTB, B2M, GAPDH, HPRT, and RPL13A).

GPX4 = experiment: Human oxidative stress RT2 Profiler PCR array in HGEPp cells: GPX4; details: HGEPp cells pretreated 24 h at 100 μg/ml; ΔΔCt
Procedure: as §3, §4, §5, §6

PRDX2 = experiment: Human oxidative stress RT2 Profiler PCR array in HGEPp cells: PRDX2; details: HGEPp cells pretreated 24 h at 100 μg/ml; ΔΔCt
Procedure: as §3, §4, §5, §6

rat cortical neurons = experiment: Caspase 3/7 activation assay, OGD-induced neurotoxicity in rat cortical neurons; format: cell-based; details: for OGD induced caspase 3/7 activation / neuroprotection: 100 μg/ml, 1 h incubation eighteen hours prior to OGD, FIG. 7
Procedure: The effect of the rotomer complexes of Examples 1, 2, 3 and 9 on neurotoxicity induced by oxygen glucose deprivation (OGD) was tested in a caspase 3/7 activation assay. The assay was applied to freshly isolated rat cortical neurons cultured in 96-well-plates and exposed to the compounds at 100 μg/ml.
In vitro ischemic injury was induced in rat primary neuronal culture by oxygen-glucose deprivation for 2 hours. Neurons were incubated with the compounds for 1 hour eighteen hours prior to the OGD induction. Dizocilpine (MK801) 10 μM was used as positive neuroprotection control. After treatments, incubated with three optically compatible fluorescent dyes, and subsequently analyzed with BD Pathway 855 (Becton Dickinson). Cell parameters associated with caspase 3/7 activation—indicative of pre-lethal cytotoxic effects—were measured by high content screening at single cell level.
Primary cultures of cortical neurons were isolated from cerebral cortices of Sprague-Dawley rat fetuses at embryonic day 18. Brains were removed and after removing the meninges, the tissues were dissected under a binocular microscope. Neurons were enzymatically dispersed by trypsin 0.2% and DNAse […] digestion for 10 min at 37° C. plated in poly-L-lysine wells and incubated with B27 supplemented neurobasal medium.
Cortical neurons of 18 days old embryonic rats were plated in poly-1-lysine coated 96-well plates (30,000 cells per well). Cells were maintained in neurobasal medium supplemented with B-27 component: for 5 days at 37° C. in a humidified 5% CO2 atmosphere. At day 5, cells were subjected to oxygen glucose deprivation (OGD) for 2 hours at 37° C. The cultures were placed in an […] chamber (Billops-Rothenberg) and incubated in neurobasal medium lacking glucose and B27 factor and aerated with an anaerobic gas mixture (94.7% N2. 5% CO2, 0.3% O2) to remove residual oxygen. Control cultures were kept in the original neurobasal medium but were submitted to the anaerobic conditions. At the end of the OGD conditions, the cells were removed from the anaerobic chamber, the OGD medium was replaced with neurobasal medium containing glucose, and the cells were incubated for an additional 24 h. The test compounds were added to the neurons eighteen hours prior to the OGD induction and maintained for 1 h. Replicate cultures were treated as described above with dizocilpine (MK801) as positive control of neuroprotection. The neuroprotective potential of the four rotomer complexes was determined by a caspase 3/7 activation assay.
(§2) Caspase 3/7 activation was determined using The CellEvent® Caspase-3/7 Green Detection Reagent which is intrinsically a non-fluorescent peptide that inhibits the ability of the dye to bind to DNA. However, after caspase-3/7 activation in apoptotic cells, the peptide is cleaved allowing the dye to bind to DNA producing a bright, fluorogenic response. Cell were stained with 5 μM reagent, washed 3 times and measured at 488 nm/530 nm Ex/Em. This dye permits the direct quantification of apoptotic cells.

[2] = test system: mouse neonatal primary cardiomyocyte; details: 100 μg/ml, 4 hours prior to OGD, during 18 h OGD and 24 h recovery; FIG. 9
Procedure: as §2

[3] = test system: oxidative stress-related genes in HGEPp cells; experiment: Human oxidative stress RT2 Profiler PCR array in HGEPp cells: statements over several genes; details: for SOD1, NQ01, GCLC, GSTP1 and GCLM; 100 μg/ml, 24 h
Procedure: as §3, §4, §5, §6

HGEPp cells [4] = details: 100 μg/mL pretreatment; taken from PCT/IB2017/001312; cited from earlier work

Compound | ROS level relative to Normal (100%, optical density baseline) (HGEPp cells [1]) | ALOX12 up regulation relative fold change (ALOX12) | SOD1 up regulation relative fold change (SOD1) | GPX1 up regulation relative fold change (GPX1) | NQO1 up regulation relative fold change (NQO1) | GCLC up regulation relative fold change (GCLC) | GSTP1 up regulation relative fold change (GSTP1) | GCLM up regulation relative fold change (GCLM) | GTF2i down regulation relative fold change (GTF2i) | PTGS1 down regulation relative fold change (PTGS1) | UCP2 down regulation relative fold change (UCP2) | MPO up regulation relative fold change (MPO) | GPX4 up regulation relative fold change (GPX4) | PRDX2 down regulation relative fold change (PRDX2) | OGD induced caspase 3/7 activation (rat cortical neurons) | neuroprotection (rat cortical neurons) | cardioprotection [2] | up-regulation compared to ST-617-DPI and ST-617-DPI [3] | ROS level relative to Normal (100%, optical density baseline) (HGEPp cells [4]) | prevention of OGD-induced apoptosis based on caspase activation (rat cortical neurons; 10 μM, OGD 2 hours, measured 24 h after exposure)
Cc1c(-c2cncc[n+]2C(=O)c2ccccc2)ssc1=S.[Cl-] [Example 6, benzoyl chloride complex of oltipraz] | 131% | 5.93 fold | 3.92 fold | 4.43 fold | 3.17 fold | 3.31 fold | 2.74 fold | 2.25 fold | 0.36 fold | 0.28 fold | 0.28 fold | 3.05 fold | 2.91 fold | 0.31 fold | – | – | – | – | – | –
COP(=O)([O-])OC.Cc1c(-c2c[n+](C)ccn2)ssc1=S [Example 9, dimethyl phosphate complex of N-methyl oltipraz] | 112% | 6.43 fold | 5.22 fold | 4.89 fold | 4.24 fold | 4.60 fold | 3.16 fold | 3.15 fold | 0.28 fold | 0.21 fold | 0.15 fold | 3.41 fold | 2.93 fold | 0.27 fold | significantly reduced | high degree of neuroprotection | significant degree of cardioprotection | significantly higher up-regulation | – | –
Cc1c(-c2cnccn2)ssc1=S [ST-617-API, 4-methyl-5-(pyrazin-2-yl)-3H-1,2-dithiole-3-thione, reference compound] | – | – | – | – | – | – | – | – | – | 6.22 fold | – | – | – | – | – | – | – | – | 124% | –
Cc1c(-c2cnccn2)ssc1=S.Cl [Example 1, hydrochloride complex of oltipraz] | 128% | – | – | – | – | – | – | – | – | – | – | – | – | – | significantly reduced | high degree of neuroprotection | significant degree of cardioprotection | – | – | –
CC(=O)[n+]1ccncc1-c1ssc(=S)c1C.[Cl-] [Example 3, acetyl chloride complex of oltipraz] | 129% | 6.33 fold | 4.24 fold | 4.76 fold | 3.36 fold | 3.27 fold | 2.87 fold | 2.38 fold | 0.32 fold | 0.29 fold | 0.26 fold | 3.10 fold | 2.83 fold | 0.33 fold | significantly reduced | high degree of neuroprotection | significant degree of cardioprotection | – | – | –
Cc1c(-c2cncc[n+]2OC2=CC(=O)OC2=O)ssc1=S [Example 2, hydroxymaleate anhydride complex of oltipraz] | 116% | – | – | – | – | – | – | – | – | – | – | – | – | – | significantly reduced | high degree of neuroprotection | significant degree of cardioprotection | – | – | –
C[C@]12N[C@H](Cc3ccccc31)c1ccccc12 [MK801, Dizocilpine, reference compound] | – | – | – | – | – | – | – | – | – | – | – | – | – | – | – | – | – | – | – | 28%
Cc1c(-c2cncc[n+]2C)ssc1=S.[I-] [Example 5, methyl iodide complex of oltipraz] | 134% | 6.04 fold | 3.89 fold | 4.98 fold | 3.15 fold | 3.38 fold | 2.90 fold | 2.27 fold | 0.33 fold | 0.28 fold | 0.29 fold | 3.18 fold | 2.85 fold | 0.32 fold | – | – | – | – | – | –
thiobenzoic acid complex of oltipraz [Example 11] | 116% | – | – | – | – | – | – | – | – | – | – | – | – | – | – | – | – | – | – | –
CCCC[n+]1ccncc1-c1ssc(=S)c1C.[Cl-] [Example 4, n-butyl chloride complex of oltipraz] | 128% | 5.82 fold | 4.15 fold | 4.80 fold | 3.34 fold | 3.35 fold | 2.88 fold | 2.38 fold | 0.35 fold | 0.27 fold | 0.25 fold | 3.20 fold | 2.96 fold | 0.32 fold | – | – | – | – | – | –
Cc1c(-c2cnccn2)ssc1=S.O=S(=O)(O)CCO [Example 10, isethionic acid complex of oltipraz] | 113% | – | – | – | – | – | – | – | – | – | – | – | – | – | – | – | – | significantly higher up-regulation | – | –
